What was measured:
[1] = tested on: HCT116 cells and MKN45 cells; assay: Test C: Measurement of the cell proliferation via a 14C-thymidine pulse; assay type: cell-based; details: 14C-thymidine incorporation, 96 hours of treatment; cell line (HCT116 or MKN45) not stated
Method: C) Test C: Measurement of the Cell Proliferation Via a 14C-Thymidine Pulse
The cells are inoculated in Cytostar 96-well plates in 180 μl for 4 hours at 37° C. and 5% CO2: HCT116 cells at a rate of 2500 cells per well in DMEM medium+10% foetal calf serum+1% L-Glutamine and MKN45 cells at a rate of 7500 cells per well in RPMI medium+10% foetal calf serum+1% L-Glutamine. After these 4 hours of incubation, the products are added in 10 μl as a 20-fold concentrated solution according to the dilution method cited for ELISA. The products are tested at 10 concentrations in duplicate from 10 000 nM to 0.3 nM with an increment of 3.
After 72 hours of treatment, add 10 μl of 14C-thymidine at 10 μCi/ml to obtain 0.1 μCi per well. The incorporation of 14C-thymidine is measured on a Micro-Beta machine (Perkin-Elmer) after 24 hours of pulse and 96 hours of treatment.
All the test steps are automated on BIOMEK 2000 or TECAN stations.

[2] = molecular target: T1, MET (Homo sapiens, UniProt P08581); assay: Test B: Inhibition of autophosphorylation of MET; ELISA technique (pppY1230,1234,1235) in MKN45 cells; assay type: cell-based; parameters: Inoculated MKN45 cells in 96-well plates; endogenous in cells; host or cells: MKN45 cells; details: 1 hour treatment, phosphoMET ELISA
Method: B) Test B: Inhibition of autophosphorylation of MET; ELISA technique (pppY1230,1234,1235)
a) Cell lysates: Inoculated MKN45 cells in 96-well plates (Cell coat BD polylysine) to a rate of 20 000 cells/well in 200 μl in RPMI medium+10% FCS+1% L-glutamine. Leave to adhere for 24 hours in an incubator.
The cells are treated the day after inoculation with the products at six concentrations in duplicate for 1 hour. At least three control wells are treated with the same amount of final DMSO.
Product dilution: Stock at 10 mM in pure DMSO—range from 10 mM to 30 μM with an increment of 3 in pure DMSO—Intermediate 50-fold dilutions in the culture medium, followed by removal of 10 μl added directly to the cells (200 μl): final range from 10 000 to 30 nM.
At the end of incubation, delicately remove the supernatant and rinse with 200 μl of PBS. Next, place 100 μl of lysis buffer directly in the wells on ice and incubate at 4° C. for 30 minutes. Lysis buffer: 10 mM Tris-HCl pH 7.4, 100 mM NaCl, 1 mM EDTA, 1 mM EGTA, 1% Triton X-100, 10% glycerol, 0.1% SDS, 0.5% deoxycholate, 20 mM NaF, 2 mM Na3VO4, 1 mM PMSF and anti-protease cocktail.
The 100 μl of lysates are transferred into a V-bottomed polypropylene plate and ELISA is performed directly or the plate is frozen at −80° C.,
b) ELISA PhosphoMET SicSource Kit KH00281
Add 70 μl of kit dilution buffer+30 μL of cell lysates or 30 μl of lysis buffer for the blanks to each well of the kit plate. Incubate for 2 hours with gentle rocking at room temperature.
Rinse the wells four times with 400 μl of kit washing buffer. Incubate with 100 μl of anti-phospho MET antibody for 1 hour at room temperature.
Rinse the wells four times with 400 μL of kit washing buffer. Incubate with 100 μl of anti-rabbit HRP antibody for 30 minutes at room temperature (except for the wells with chromogen alone).
Rinse the wells four times with 400 μl of kit washing buffer. Introduce 100 μl of chromogen and incubate for 30 minutes in the dark at room temperature.
Stop the reaction with 100 μl of stop solution. Take the reading without delay, at […] 0.1 second on a Wallac Victor plate reader.
Target sequence in this assay (P08581 25-1390): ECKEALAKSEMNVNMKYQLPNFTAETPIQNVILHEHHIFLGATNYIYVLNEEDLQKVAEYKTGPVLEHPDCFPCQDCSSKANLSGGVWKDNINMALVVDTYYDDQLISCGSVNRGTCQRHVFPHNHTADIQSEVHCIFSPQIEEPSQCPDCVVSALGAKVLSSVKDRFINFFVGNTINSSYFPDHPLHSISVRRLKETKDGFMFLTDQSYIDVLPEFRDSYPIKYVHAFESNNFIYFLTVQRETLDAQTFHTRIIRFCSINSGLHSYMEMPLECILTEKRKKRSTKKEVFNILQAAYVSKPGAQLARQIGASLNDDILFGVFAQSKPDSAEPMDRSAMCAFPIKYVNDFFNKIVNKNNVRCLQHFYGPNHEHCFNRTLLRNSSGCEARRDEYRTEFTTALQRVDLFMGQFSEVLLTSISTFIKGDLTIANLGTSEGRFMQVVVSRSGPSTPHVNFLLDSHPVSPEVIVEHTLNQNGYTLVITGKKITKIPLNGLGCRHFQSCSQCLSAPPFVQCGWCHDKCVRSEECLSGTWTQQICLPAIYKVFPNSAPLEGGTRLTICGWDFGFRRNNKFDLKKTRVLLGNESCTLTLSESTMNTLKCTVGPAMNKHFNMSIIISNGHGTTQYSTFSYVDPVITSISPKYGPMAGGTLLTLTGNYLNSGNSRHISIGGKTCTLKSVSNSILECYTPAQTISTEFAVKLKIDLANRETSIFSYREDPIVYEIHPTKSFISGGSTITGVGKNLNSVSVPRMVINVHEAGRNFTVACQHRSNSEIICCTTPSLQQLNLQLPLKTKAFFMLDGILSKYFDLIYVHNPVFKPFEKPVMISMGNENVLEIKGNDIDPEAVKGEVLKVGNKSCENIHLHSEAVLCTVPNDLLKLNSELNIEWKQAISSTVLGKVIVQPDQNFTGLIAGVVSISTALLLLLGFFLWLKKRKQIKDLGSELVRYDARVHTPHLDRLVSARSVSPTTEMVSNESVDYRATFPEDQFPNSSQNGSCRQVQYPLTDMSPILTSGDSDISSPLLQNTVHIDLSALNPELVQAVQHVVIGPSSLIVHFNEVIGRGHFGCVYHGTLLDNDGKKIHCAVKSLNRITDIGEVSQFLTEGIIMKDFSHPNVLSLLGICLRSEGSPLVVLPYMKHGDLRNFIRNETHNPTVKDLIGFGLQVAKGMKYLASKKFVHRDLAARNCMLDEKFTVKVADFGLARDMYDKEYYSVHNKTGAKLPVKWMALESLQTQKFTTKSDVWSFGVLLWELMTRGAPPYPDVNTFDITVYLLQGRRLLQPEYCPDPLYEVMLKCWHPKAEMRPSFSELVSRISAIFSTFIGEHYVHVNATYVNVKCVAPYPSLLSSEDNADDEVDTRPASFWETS

[3] = molecular target: T1, MET; assay: Test A: HTRF MET test in 96-well format; assay type: biochemical; parameters: The recombinant DNA His-Tev-MET (956-1390) in pFastBac; His (N, cleaved yes); TEV cleavage site (N); made in house; host or cells: SF21 insect cells (baculovirus, pFastBac); details: ATP 10 μM, MET 5 nM
Method: The recombinant DNA His-Tev-MET (956-1390) in pFastBac (invitrogen) is transfected into insect cells and, after several viral amplification steps, the final baculovirus stock is tested for expression of the protein of interest.
For the production of autophosphorylated protein, the preceding fractions are incubated for 1 hour at room temperature after addition of ATP 2 mM, MgCl2 2 mM, and Na3VO4 4 mM. After stopping the reaction with 5 mM of EDTA, the reaction mixture is injected onto a HiPrep desalting column (GE HealthCare) pre-equilibrated with buffer A+Na3VO4 4 mM, and the fractions containing the protein of interest (SDS PAGE analysis) are pooled and stored at −80° C. The degree of phosphorylation is checked by mass spectrometry (LC-MS) and by peptide mapping.
A) Test A: HTRF MET test in 96-well format
In a final volume of 50 μl of enzymatic reaction, MET 5 nM final is incubated in the presence of the test molecule (for a final concentration range of 0.17 nM to 10 μM, DMSO 3% final) in MOPS 10 mM pH 7.4, DTT 1 mM, 0.01% Tween 20 buffer. The reaction is initiated with the substrate solution to obtain final concentrations of poly-(GAT) 1 μg/ml, ATP 10 μM and MgCl2 5 mM. After incubation for 10 minutes at room temperature, the reaction is stopped with a mix of 30 μl to obtain a final solution of Hepes 50 mM pH 7.5, potassium fluoride 500 mM, 0.1% BSA and EDTA 133 mM in the presence of 80 ng of streptavidin 61SAXLB Cis-Bio Int. and 18 ng of anti-phosphotyrosine Mab PT66-Europium Cryptate per well. After incubation for 2 hours at room temperature, the reading is taken at two wavelengths, 620 nm and 665 nm, on a reader for the TRACE/HTRF technique and the percentage of inhibition is calculated from the 665/620 ratios.
Target sequence in this assay (P08581 956-1390): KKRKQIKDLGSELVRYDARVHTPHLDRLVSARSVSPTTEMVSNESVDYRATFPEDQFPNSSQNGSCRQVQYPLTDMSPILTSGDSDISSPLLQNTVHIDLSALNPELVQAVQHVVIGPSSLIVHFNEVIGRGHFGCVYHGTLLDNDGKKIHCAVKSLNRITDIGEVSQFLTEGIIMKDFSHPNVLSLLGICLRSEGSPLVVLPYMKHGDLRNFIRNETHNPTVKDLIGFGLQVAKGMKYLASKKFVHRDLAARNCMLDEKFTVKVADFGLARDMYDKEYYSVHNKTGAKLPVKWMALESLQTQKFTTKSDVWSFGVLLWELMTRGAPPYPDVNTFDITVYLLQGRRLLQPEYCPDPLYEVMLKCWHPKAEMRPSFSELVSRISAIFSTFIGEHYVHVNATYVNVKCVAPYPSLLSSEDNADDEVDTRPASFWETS

Row | SMILES | IC50 [1] | IC50 [2] | IC50 [3]
1 | O=C(NCCN1CCOCC1)Nc1nc2cc(F)c(Sc3nnc4ccc(OC5CCCCC5)nn34)cc2s1 [Example 1, 1-(6-{[6-(Cyclohexyloxy)[1,2,4]triazolo[4,3-b]pyridazin-3-yl]sulfanyl}-5-fluoro-1,3-benzothiazol-2-yl)-3-[2-(morpholin-4-yl)ethyl]urea] | < 1000 nM | < 100 nM | < 100 nM
2 | Nc1nc2cc(F)c(Sc3nnc4ccc(-c5ccc(F)cc5)nn34)cc2s1 [Example 3, 5-fluoro-6-{[6-(4-fluorophenyl)[1,2,4]triazolo[4,3-b]pyridazin-3-yl]sulfanyl}-1,3-benzothiazol-2-amine] | < 1000 nM | < 100 nM | < 100 nM
3 | CCN1CCN(CC(=O)Nc2nc3cc(F)c(Sc4nnc5ccc(OC6CCC6)nn45)cc3s2)CC1 [Example 10, N-(6-{[6-(Cyclobutyloxy)[1,2,4]triazolo[4,3-b]pyridazin-3-yl]sulfanyl}-5-fluoro-1,3-benzothiazol-2-yl)-2-(4-ethylpiperazin-1-yl)acetamide] | < 1000 nM | < 100 nM | < 100 nM
4 | O=C(CN1CCN(C2CC2)CC1)Nc1nc2cc(F)c(Sc3nnc4ccc(OC5CCC5)nn34)cc2s1 [Example 8, N-(6-{[6-(cyclobutyloxy)[1,2,4]triazolo[4,3-b]pyridazin-3-yl]sulfanyl}-5-fluoro-1,3-benzothiazol-2-yl)-2-(4-cyclopropylpiperazin-1-yl)acetamide] | < 1000 nM | < 100 nM | < 100 nM
5 | O=C(NCCN1CCOCC1)Nc1nc2cc(F)c(Sc3nnc4ccc(NC5CC5)nn34)cc2s1 [Example 5, 1-(6-{[6-(cyclopropylamino)[1,2,4]triazolo[4,3-b]pyridazin-3-yl]sulfanyl}-5-fluoro-1,3-benzothiazol-2-yl)-3-[2-(morpholin-4-yl)ethyl]urea] | < 1000 nM | < 100 nM | < 100 nM
6 | O=C(CN1CCN(C2CC2)CC1)Nc1nc2cc(F)c(Sc3nnc4ccc(OC5COC5)nn34)cc2s1 [Example 11, 2-(4-cyclopropylpiperazin-1-yl)-N-(5-fluoro-6-{[6-(oxetan-3-yl-oxy)[1,2,4]triazolo[4,3-b]pyridazin-3-yl]sulfanyl}-1,3-benzothiazol-2-yl)acetamide] |  | < 500 nM | < 500 nM
7 | CCOc1ccc2nnc(Sc3cc4sc(NC(=O)CN5CCN(C6CC6)CC5)nc4cc3F)n2n1 [Example 7, 2-(4-cyclopropylpiperazin-1-yl)-N-{6-[(6-ethoxy[1,2,4]triazolo[4,3-b]pyridazin-3-yl)sulfanyl]-5-fluoro-1,3-benzothiazol-2-yl}acetamide] | < 1000 nM | < 100 nM | < 100 nM
8 | O=C(NCCN1CCOCC1)Nc1nc2cc(F)c(Sc3nnc4ccc(-c5ccc(F)cc5)nn34)cc2s1 [Example 4, 1-(5-fluoro-6-{[6-(4-fluorophenyl)[1,2,4]triazolo[4,3-b]pyridazin-3-yl]sulfanyl}-1,3-benzothiazol-2-yl)-3-[2-(morpholin-4-yl)ethyl]urea] | < 1000 nM | < 100 nM | < 100 nM
9 | CCOc1ccc2nnc(Sc3cc4sc(NC(=O)CN5CCN(CC)CC5)nc4cc3F)n2n1 [Example 9, N-{6-[(6-ethoxy[1,2,4]triazolo[4,3-b]pyridazin-3-yl)sulfanyl]-5-fluoro-1,3-benzothiazol-2-yl}-2-(4-ethylpiperazin-1-yl)acetamide] | < 1000 nM | < 100 nM | < 100 nM
10 | O=C(NCCN1CCOCC1)Nc1nc2cc(F)c(Sc3nnc4ccc(NC5CCCCC5)nn34)cc2s1 [Example 6, 1-(6-{[6-(cyclohexylamino)[1,2,4]triazolo[4,3-b]pyridazin-3-yl]sulfanyl}-5-fluoro-1,3-benzothiazol-2-yl)-3-[2-(morpholin-4-yl)ethyl]urea] | < 1000 nM | < 100 nM | < 100 nM
11 | CC(C)(C)OC(=O)Nc1nc2cc(F)c(Sc3nnc4ccc(-c5ccc(F)cc5)nn34)cc2s1 [Example 2, 2-Methylpropan-2-yl (5-fluoro-6-{[6-(4-fluorophenyl)[1,2,4]triazolo[4,3-b]pyridazin-3-yl]sulfanyl}-1,3-benzothiazol-2-yl)carbamate] | < 1000 nM | < 100 nM | < 100 nM

Source: patent US20120165326A1, “DERIVATIVES OF 6-(6-SUBSTITUTED-TRIAZOLOPYRIDAZINE-SULFANYL) 5-FLUORO BENZOTHIAZOLES AND 5-FLUORO BENZIMIDAZOLES, PREPARATION THEREOF, USE THEREOF AS DRUGS, AND USE THEREOF AS MET INHIBITORS” (SANOFI, priority 2009, published 2012)
